Data on eight compounds can be found in US7771727B2, “Conjugates of therapeutic or cytotoxic agents and biologically active peptides” (The Administrators of the Tulane Educational Fund, priority 2002, dated 2010).

In general, IC50 refers to the point on the concentration scale where inhibition reaches its midpoint. By half-life is commonly meant the time in which the quantity being followed falls by half. A low value points to rapid decline.

For data set [1], the system named is human neuroblastoma IMR32 cells (somatostatin receptor overexpression). The data set is described as follows: MTT cytotoxicity assay, IMR-32 cells. Particulars: for cytotoxic activity: 3 days. On the procedure:
The cytotoxic activities of these conjugates were measured using a standard MTT assay kit (Promega Corporation, Madison, Wis.). Each compound was incubated for 3 days with human neuroblastoma IMR32 cells (somatostatin receptor overexpression) at different concentrations in quadruplate and IC50's were generated from the dose-response curves (FIG. 2).
For orientation: Tetrazolium assays rely on reduction of a dye to a coloured formazan, in cell work by metabolically active cells.

The conditions of data set [2]: camptothecin: tertiary hydroxyl, ring position 20; combretastatin: phenolic hydroxyl; cited from earlier work.
Data set [3] is described as follows: physchem. Particulars: for Half Life Phosphate Buffer / half-life: buffer. The method, then: (§1) Each peptide conjugate was subjected to phosphate buffer and rat serum stability studies. The analogues were incubated in either 0.1 M phosphate buffer or fresh rat serum at 37° C. and aliquots were taken at different time points and examined by HPLC.
A short description of data set [4]: in vitro. On the procedure:
as §1

Data set [5] concerns GH release from monolayer cultures of rat pituitary cells. The data set is classed as cell-based. Particulars: read-out: Growth Hormone Inhibition IC50.
For data set [6], the system named is tumor. In words: Preliminary tumor bearing animal studies. The data set is classed as in vivo. The conditions noted are these: repeated intraperitoneal administration.
For data set [7], the system named is NCI-H69 small cell lung carcinomas (expression of SSTR2). The conditions noted are these: nude mice; doses far below the maximum tolerated equivalent doses of camptothecin alone.
The mark [8] stands for this setting: Homo sapiens, IMR-32, 72 h, read-out: Cytotoxicity IC50, IMR-32 Cells.
The mark [9] stands for this setting: phosphate buffer, length of the experiment 50 h.

“Also recorded” adds a separate entry of the source. Read-outs that look alike come from different tables or passages of the source. Numbered stars: 1 amine (or outer) side, 2 acyl side, 3 side chain; on linkers, the order of the positions; unused ones are H or OH. Bridge positions count the residues as written; N and C are the ends. Square brackets hold non-standard residues; d marks the D form. Peptide text beside a SMILES is read from it. * marks the point of attachment. Camptothecin(20S-OCO) = CC[C@@]1(OC(=O)*)C(=O)OCc2c1cc1n(c2=O)Cc2cc3ccccc3nc2-1; NGly(2-(methylamino)ethyl) = CN(CCN(CC(=O)[*:2])[*:1])[*:3]; X1 = COc1ccc(/C=C\c2cc(OC)c(OC)c(OC)c2)cc1OC(=O)*; Gly(N-2-aminoethyl) = NCCNCC(=O)O; X2 = CN(C)CCN(CC(=O)[*:2])[*:1]; Gly(N(CH2)3NH2) = NCCCNCC(=O)O; Gly(N-CH2CH2OH) = O=C(O)CNCCO; Nle = CCCC[C@H](N)C(=O)O Bounds are passed on as bounds.

As for `CC[C@@]1(O)C(=O)OCc2c1cc1n(c2=O)Cc2cc3ccccc3nc2-1` [Camptothecin, reference compound], the 50% inhibitory concentration (IC50) in data set [1] (setting [8]) is 2.21 ± 0.44 nM. Moreover, the “pKa of hydroxyl group” value in data set [2] is “approximately 18”.

With `COc1ccc(C[C@@H](O)c2cc(OC)c(OC)c(OC)c2)cc1O` [Combretastatin, reference compound], the concentration for half-maximal inhibition (IC50) in data set [1] (setting [8]) came out at 4.36 nM. For the same compound, in data set [2], the “pKa of hydroxyl group” value is recorded as “approximately 10.3”.

Regarding `CCCC[C@H](NC(=O)[C@@H](CO)NC(=O)CN(CCN)C(=O)O[C@]1(CC)C(=O)OCc2c1cc1n(c2=O)Cc2cc3ccccc3nc2-1)C(=O)N[C@H](Cc1ccc(O)cc1)C(=O)N[C@H](CO)C(=O)N[C@H]1CSSC[C@@H](C(=O)N[C@H](C(N)=O)[C@@H](C)O)NC(=O)[C@H]([C@@H](C)O)NC(=O)[C@H](CCCCN)NC(=O)[C@@H](Cc2c[nH]c3ccccc23)NC(=O)[C@H](Cc2ccccc2)NC1=O` [Compound 1, camptothecin-carbonyl-N-(2-aminoethyl)-glycine-D-Ser-Nle-D-Tyr-D-Ser-cyclo[Cys-Phe-D-Trp-Lys-Thr-Cys]-Thr-amide] ({Camptothecin(20S-OCO)}-[Gly(N-2-aminoethyl)][dS][Nle][dY][dS]CF[dW]KTCT-NH2; disulfide 6-11), in data set [1] (IMR32 cells), the “cytotoxic potency relative to compound 2” value was “seven times less potent than compound 2” and the “cytotoxic activity” value is reported as “next most potent; also recorded: high cytotoxicity”. In data set [1] (cell media), the “stability to cell media incubation conditions” value is reported as “very stable”. In data set [1] (human), it took 374 ± 18 nM to reach half-maximal inhibition (IC50). The “buffer stability” value in data set [3] (setting [9]) is “complete buffer stability”. In data set [4] (rat, serum), the half-life was 106 h and the “rat serum stability” value is listed as “most stable”. In addition, the IC50 in data set [5] (rat pituitary cells) turned out to be 0.32 ± 0.02 nM. Besides, the “cytotoxic effect in the tumor” value in data set [6] is reported as “equally effective”.

On to `CCCC[C@H](NC(=O)[C@@H](CO)NC(=O)CN(CCNC)C(=O)O[C@]1(CC)C(=O)OCc2c1cc1n(c2=O)Cc2cc3ccccc3nc2-1)C(=O)N[C@H](Cc1ccc(O)cc1)C(=O)N[C@H](CO)C(=O)N[C@H]1CSSC[C@@H](C(=O)N[C@H](C(N)=O)[C@@H](C)O)NC(=O)[C@H]([C@@H](C)O)NC(=O)[C@H](CCCCN)NC(=O)[C@@H](Cc2c[nH]c3ccccc23)NC(=O)[C@H](Cc2ccccc2)NC1=O` [Compound 2, camptothecin-carbonyl-N-(N-methyl-2-aminoethyl)-glycine-D-Ser-Nle-D-Tyr-D-Ser-cyclo[Cys-Phe-D-Trp-Lys-Thr-Cys]-Thr-amide] ({Camptothecin(20S-OCO)}-[NGly(2-(methylamino)ethyl)][dS][Nle][dY][dS]CF[dW]KTCT-NH2; disulfide 6-11), for which the “stability to cell media incubation conditions” value in data set [1] is recorded as “very stable”. The compound further gave an IC50 in data set [1] (human) of 54.2 ± 6 nM. In addition, in data set [3], the “Half Life Phosphate Buffer” value is 123 h and the half-life was about 120 h. In data set [4] (rat, serum), the “Half-Life Rat Serum” value came to 18 h and the half-life is 18 h. Also, the concentration for half-maximal inhibition (IC50) in data set [5] amounted to 0.27 ± 0.02 nM. The “cytotoxic effect in the tumor” value in data set [6] is “equally effective”. Also, the “growth of transplanted NCI-H69 small cell lung carcinomas” value in data set [7] is reported as “significantly stabilize the growth”.

`CCCC[C@H](NC(=O)[C@@H](CO)NC(=O)CN(CCN(C)C)C(=O)O[C@]1(CC)C(=O)OCc2c1cc1n(c2=O)Cc2cc3ccccc3nc2-1)C(=O)N[C@H](Cc1ccc(O)cc1)C(=O)N[C@H](CO)C(=O)N[C@H]1CSSC[C@@H](C(=O)N[C@H](C(N)=O)[C@@H](C)O)NC(=O)[C@H]([C@@H](C)O)NC(=O)[C@H](CCCCN)NC(=O)[C@@H](Cc2c[nH]c3ccccc23)NC(=O)[C@H](Cc2ccccc2)NC1=O` [Compound 3] ({Camptothecin(20S-OCO)}-[X2][dS][Nle][dY][dS]CF[dW]KTCT-NH2; disulfide 6-11) showed an IC50 in data set [1] (human) of 571 ± 48 nM. For the same compound, in data set [3], the “buffer stability” value was “complete buffer stability” and the “Half Life Phosphate Buffer” value is “Stable”. Further, the “rat serum stability” value in data set [4] is “most stable”. The same compound gave a half-life in data set [4] (rat, serum) of 59 h. The IC50 in data set [5] turned out to be 0.3 ± 0.04 nM.

For the compound `CCCC[C@H](NC(=O)[C@@H](CO)NC(=O)CN(CCCN)C(=O)O[C@]1(CC)C(=O)OCc2c1cc1n(c2=O)Cc2cc3ccccc3nc2-1)C(=O)N[C@H](Cc1ccc(O)cc1)C(=O)N[C@H](CO)C(=O)N[C@H]1CSSC[C@@H](C(=O)N[C@H](C(N)=O)[C@@H](C)O)NC(=O)[C@H]([C@@H](C)O)NC(=O)[C@H](CCCCN)NC(=O)[C@@H](Cc2c[nH]c3ccccc23)NC(=O)[C@H](Cc2ccccc2)NC1=O` [Compound 4] ({Camptothecin(20S-OCO)}-[Gly(N(CH2)3NH2)][dS][Nle][dY][dS]CF[dW]KTCT-NH2; disulfide 6-11), the results for the IC50 in data set [1] (human) and in data set [5] (rat pituitary cells) were over 1000 nM and 0.26 ± 0.03 nM, respectively. Moreover, the “buffer stability” value in data set [3] (setting [9]) is recorded as “complete buffer stability”. The half-life in data set [4] (rat, serum) was 72 h. Moreover, in data set [4] (rat, serum), the “rat serum stability” value is “most stable”.

`CCCC[C@H](NC(=O)[C@@H](CO)NC(=O)CN(CCO)C(=O)O[C@]1(CC)C(=O)OCc2c1cc1n(c2=O)Cc2cc3ccccc3nc2-1)C(=O)N[C@H](Cc1ccc(O)cc1)C(=O)N[C@H](CO)C(=O)N[C@H]1CSSC[C@@H](C(=O)N[C@H](C(N)=O)[C@@H](C)O)NC(=O)[C@H]([C@@H](C)O)NC(=O)[C@H](CCCCN)NC(=O)[C@@H](Cc2c[nH]c3ccccc23)NC(=O)[C@H](Cc2ccccc2)NC1=O` [Compound 5] ({Camptothecin(20S-OCO)}-[Gly(N-CH2CH2OH)][dS][Nle][dY][dS]CF[dW]KTCT-NH2; disulfide 6-11): the IC50 was over 1000 nM in data set [1] (human) and 0.49 ± 0.1 nM in data set [5].

As for `CCCC[C@H](NC(=O)[C@@H](CO)NC(=O)CN(CCN)C(=O)Oc1cc(/C=C\c2cc(OC)c(OC)c(OC)c2)ccc1OC)C(=O)N[C@H](Cc1ccc(O)cc1)C(=O)N[C@H](CO)C(=O)N[C@H]1CSSC[C@@H](C(=O)N[C@H](C(N)=O)[C@@H](C)O)NC(=O)[C@H]([C@@H](C)O)NC(=O)[C@H](CCCCN)NC(=O)[C@@H](Cc2c[nH]c3ccccc23)NC(=O)[C@H](Cc2ccccc2)NC1=O` [Compound 6, combretastatin-carbonyl-N-(2-aminoethyl)-glycine-D-Ser-Me-D-Tyr-D-Ser-cyclo[Cys-Phe-D-Trp-Lys-Thr-Cys]-Thr-amide] (X1-[Gly(N-2-aminoethyl)][dS][Nle][dY][dS]CF[dW]KTCT-NH2; disulfide 6-11), in data set [1] (IMR32 cells), the “cytotoxic activity” value is recorded as “most cytotoxic”. Further, the IC50 in data set [1] (read-out: Cytotoxicity IC50, IMR-32 Cells, 3 days incubation, MTT assay) worked out at 2.79 ± 0.33 nM; in data set [5] (rat pituitary cells), 0.31 ± 0.1 nM. The half-life was 30 h in data set [3] and 4 h in data set [4] (rat, serum). Moreover, in data set [3] (from stability data in buffer, after 3 days), the “conjugate that is free cytotoxin after 3 days” value is reported as 50%. For the same compound, the “Half-Life Rat Serum” value in data set [4] (fresh rat serum, 37° C.) was determined as 4 h.
